Assays:
[1] = tested on: spinal nerve ligation model (SNL); experiment: Rat spinal nerve ligation model (SNL), Von Frey test; type: in vivo, SD rats; conditions: for PWT 50% value (g) Post-surgery, Preadministration / PWT 50% value (g) Pre-surgery / PWT 50% value (g) Time 0.5 h / PWT 50% value (g) Time 2 h / PWT 50% value (g) Time 4 h / PWT 50% value (g) Time 6 h / PWT 50% value (g) Time 8 h / PWT 50% value (g) AUC0-8h: SD rats SNL, Mean + SEM, n = 10; for PWT 50% value (g) Post-surgery, Preadministration: baseline before administration; for PWT 50% value (g) Pre-surgery: baseline before surgery; for PWT 50% value (g) Time 0.5 h: 0.5 h after administration; for PWT 50% value (g) Time 2 h: 2 h after administration; for PWT 50% value (g) Time 4 h: 4 h after administration; for PWT 50% value (g) Time 6 h: 6 h after administration; for PWT 50% value (g) Time 8 h: 8 h after administration
Procedure: Experimental Example 8: Pharmacodynamic effect study of compounds in rat spinal nerve ligation model (SNL) Experimental animals: SD rats, male, 180-220 g.
Compound preparation: 5% (final preparation volume) of DMSO was added to dissolve the test compound, and then 10% (final preparation volume) of Cremophor EL and 85% Saline were sequentially added.
SD rats were anesthetized with isoflurane via inhalation. Each rat was placed in a prone position, and the hair at the surgical site was shaved locally. The surgical site was disinfected with alcohol and iodophor. Under sterile conditions, a 3-4 cm longitudinal incision was made at the level of the lower lumbar/upper sacrum to expose the left paravertebral muscles. Using small sharp-blunt scissors, the paravertebral muscles were bluntly dissected, and the transverse process of L6 was excised. The L4 and L5 spinal nerves were isolated and exposed, and the L5 spinal nerve was ligated with 6-0 silk sutures. The surgical wound was treated with ceftriaxone for anti-inflammation and infection prevention. The muscles and skin were sutured layer by layer, followed by disinfection with iodophor. After the surgery, the animals were placed on a warm electric blanket for heat preservation and returned to the cages for rearing after complete recovery from anesthesia. Postoperative behavioral observations were performed.
(§1) 2. Administration and test
The Von Frey test was performed once before the surgery. On the 5th and 6th days after surgery, paw-lifting training was performed once each day. Animals with a baseline of 2-5 g were selected for enrollment and grouped based on the 50% PWT values, with 10 animals per group. The next day, a single dose was administered in a blinded manner. The 50% PWT of the animals was measured separately before administration (baseline) and at 0.5 h, 2 h, 4 h, 6 h, or 8 h after administration. The model control group was given normal saline, while the compound groups were given the compounds according to the administration doses in the table below.

[2] = tested on: CFA-induced rat inflammatory pain model; experiment: CFA-induced rat inflammatory pain model, Von Frey test; type: in vivo, SD rats
Procedure: Experimental Example 9: Pharmacodynamic effect study of compounds in CFA-induced rat inflammatory pain model Experimental animals: SD rats, male, 180-220 g.
Compound preparation: 5% (final preparation volume) of DMSO was added to dissolve the test compound, and then 10% (final preparation volume) of Cremophor EL and 85% Saline were sequentially added; an appropriate amount of Celecoxib was weighed, 5% (final preparation volume) of DMSO was added to dissolve the test compound, and then 5% (final preparation volume) of HS-15 and 90% Saline were sequentially added.
SD rats were anesthetized with isoflurane. The right hind paw was disinfected, a needle was inserted subcutaneously at the posterior plantar aspect, and 50 µL of complete Freund's adjuvant (CFA, 1 mg/mL) was administered via subcutaneous injection at the midplantar region, with the needle withdrawn slowly while rotating to prevent leakage. After modeling, local redness and swelling of the soles of the feet, difficulty in walking, and lifting of the affected feet were observed.
as §1
The Von Frey test was performed once before the surgery. On the second day after animal modeling, animals meeting the baseline requirements were selected for enrollment. The animals were randomly divided into 6 groups based on the 50% PWT values, with 10 animals per group. Administration was performed under a double-blind test protocol. The 50% PWT of the animals was measured separately before administration (baseline) and at 0.5 h, 2 h, and 8 h after administration. The model control group was given normal saline, while the compound groups were given the compounds according to the administration doses in the table below.

[3] = tested on: acetic acid writhing model; experiment: Mouse acetic acid writhing model; type: in vivo, ICR mice; conditions: for Number of writhing responses / Inhibition rate (%): ICR mice; for Number of writhing responses: 60 min before 0.8% acetic acid i.p., 30 min observation, Mean + SD, n = 10; for Inhibition rate (%): inhibition of writhing responses vs control group
[4] = mouse acetic acid writhing model

COc1c(C2CC(C)(C(F)(F)F)SC2C(=O)Nc2ccnc(C(N)=O)c2)ccc(F)c1F (single isomer, unassigned) [Compound 139-A, 4-(3-(3,4-difluoro-2-methoxyphenyl)-5-methyl-5-(trifluoromethyl)tetrahydrothiophene-2-carboxamido)picolinamide]
PWT 50% value (g) Post-surgery, Preadministration ([1]; 50 mg/kg group): 2.68 ± 1.05 g | PWT 50% value (g) Pre-surgery ([1]; 50 mg/kg group): 14.94 ± 2.38 g | PWT 50% value (g) Time 0.5 h ([1]; 50 mg/kg single dose): 5.78 ± 2.76 g | PWT 50% value (g) Time 2 h ([1]; 50 mg/kg single dose): 8.76 ± 2.47 g | PWT 50% value (g) Time 4 h ([1]; 50 mg/kg single dose): 7.73 ± 4.32 g | PWT 50% value (g) Time 6 h ([1]; 50 mg/kg single dose): 4.9 ± 1.61 g | PWT 50% value (g) Time 8 h ([1]; 50 mg/kg single dose): 3.57 ± 1.44 g | PWT 50% value (g) AUC0-8h ([1]; 50 mg/kg single dose): 50.59 ± 15.71 g | PWT 50% value (g) Post-surgery, Preadministration ([1]; 125 mg/kg group): 2.68 ± 1 g | PWT 50% value (g) Pre-surgery ([1]; 125 mg/kg group): 13.83 ± 3.18 g | PWT 50% value (g) Time 0.5 h ([1]; 125 mg/kg single dose): 6.96 ± 3.34 g | PWT 50% value (g) Time 2 h ([1]; 125 mg/kg single dose): 9.61 ± 3.73 g | PWT 50% value (g) Time 4 h ([1]; 125 mg/kg single dose): 7.26 ± 3.19 g | PWT 50% value (g) Time 6 h ([1]; 125 mg/kg single dose): 5.01 ± 1.63 g | PWT 50% value (g) Time 8 h ([1]; 125 mg/kg single dose): 3.88 ± 1.67 g | PWT 50% value (g) AUC0-8h ([1]; 125 mg/kg single dose): 52.87 ± 15.06 g | dose-effect relationship ([1]; rat SNL model): relatively good dose-effect relationship | differences compared with the model group ([1]; rat SNL model, all time points): significant differences compared with the model group at all time points | analgesic activity compared with the positive control Celecoxib ([2]; CFA-induced rat inflammatory pain model): superior to the positive control Celecoxib | PWT 50% value (g) Post-surgery, Preadministration ([2]; SD rats CFA, 125 mg/kg group, baseline before administration, Mean + SEM, n = 10): 3.1 ± 1.12 g | PWT 50% value (g) Pre-surgery ([2]; SD rats CFA, 125 mg/kg group, baseline before modeling, Mean + SEM, n = 10): 12.61 ± 3.5 g | PWT 50% value (g) Time 0.5 h ([2]; SD rats CFA, 125 mg/kg, 0.5 h after administration, Mean + SEM, n = 10): 6.78 ± 5.47 g | PWT 50% value (g) Time 2 h ([2]; SD rats CFA, 125 mg/kg, 2 h after administration, Mean + SEM, n = 10): 6.54 ± 3.06 g | PWT 50% value (g) Time 8 h ([2]; SD rats CFA, 125 mg/kg, 8 h after administration, Mean + SEM, n = 10): 3.6 ± 1.5 g | PWT 50% value (g) AUC0-8h ([2]; SD rats CFA, 125 mg/kg, Mean + SEM, n = 10): 40.83 ± 12.03 g | Number of writhing responses ([3]; Dose 50 mg/kg): 27±18 | Inhibition rate (%) ([3]; Dose 50 mg/kg): 45.36% | Number of writhing responses ([3]; Dose 125 mg/kg): 18±12 | Inhibition rate (%) ([3]; Dose 125 mg/kg): 62.89% | effect of inhibiting the number of writhing responses ([3]; dose of 125 mg/kg): very significant effect | dose-effect relationship [3, 4]: relatively good dose-effect relationship | inhibition of the writhing effect compared with VX-548 [3, 4]: better than VX-548

Source: patent EP4813993A1, “COMPOUND, PREPARATION METHOD THEREFOR, AND USE THEREOF” (Sichuan Kelun Pharmaceutical Research Institute Co., Ltd., priority 2023, dated 2025)
